Test system: Rac/Cdc42
Assay: Rac/Cdc42 BRET sensor (PAK-CRIB-RlucII / rGFP-CAAX), AT1R-mediated
Type: cell-based, human
Description: Since 21 inhibited both ERK1/2 and Akt activation by GPCRs and EGFR, we looked at a common target involved in both pathways. The small G protein Ras is an upstream regulator of both Ras-RAF-MEK-ERK and PI3K/Akt signaling pathways[35],[36]. Therefore, we explored 21’s ability to inhibit Ras activity using GST-Raf1-Ras-binding domain (RBD) in a pull-down assay. A reduction of 60% in GTP-bound Ras was noticed in pulled-down from cells treated with 21 and stimulated with either AT1R or EGFR, as compared to vehicle-treated cells (Fig. 4a, b). Complementary to this in vitro assay, we generated a Ras BRET assay, using the Raf-Ras binding domain tagged with RlucII (Raf1-RBD-RlucII) and the rGFP at the PM (rGFP-CAAX) (Supplementary Fig. 3c), to assess 21’s effects on Ras activation kinetics. […] Overexpression of either the active form of Ras (G12V) or SOS1 anchored at the PM (SOS-CAAX) produced a robust basal BRET signal that was no longer modulated by receptor activation (Supplementary Fig. 3d). […] 21’s potency to inhibit ARF6 and Ras is also consistent with its relative efficacy for inhibiting AT1R internalization and MAPK, respectively, when used at 50 μM (e.g., around 7 and 70 times the respective IC50s) (Figs. 2e and 3a). We also assessed if 21 was acting as a pan small G protein inhibitor by testing its effect on Rho and Rac/Cdc42. […] To assess Rac/Cdc42 activity, we generated a Rac/Cdc42 BRET sensor that consisted of the PAK-CRIB domain fused to RlucII (PAK-CRIB-RlucII) and the rGFP-CAAX (Supplementary Fig. 3e). PAK-CRIB, which binds to active Rac/Cdc42, was recruited to the PM upon AngII stimulation of cells and generated a robust BRET signal, which was blocked by the overexpression of the DN Rac1-T17N. Overexpression of the constitutively active Rac1-Q61L increased the basal BRET, which was no longer modulated by AT1R stimulation (Supplementary Fig. 3f).
HEK293SL cells were seeded at a density of 7.5 × 10^5 cells per 100-mm dish and 24 h later, transiently transfected as such. For receptor internalization experiments, cells were transfected with 0.12 μg AT1R-RlucII, B2R-RlucII, or β2AR-RlucII and 0.48 μg of either rGFP-CAAX (to assess removal from the PM) or rGFP-FYVE (to assess accumulation in the endosomes). For β-arrestin recruitment assays, cells were transfected with 0.48 μg of receptor-YFP along with 0.12 μg of β-arrestin-RlucII. For β-arrestin/AP-2 binding experiments, cells were transfected with 1 μg Flag-AT1R, 1 μg β2-Adaptin-YFP, and 0.12 μg β-arrestin2-RlucII. For G protein activation, cells were transfected with 3 μg of sp-Flag-AT1R along with either 4.5 μg of the Gαq-polycistronic BRET sensor or 0.24 μg of the Gαi3-RlucII and 0.6 μg of GFP10-Gγ2 and Gβ1 sensors or 0.12 μg PKN-RBD-RlucII and 0.48 μg of rGFP-CAAX. For PKC activation, cells were transfected with 3 μg of sp-Flag-AT1R and 0.18 μg of the PKC sensor. For GTPase activation experiments, cells were transfected with 1 μg Flag-AT1R, 0.48 μg of rGFP-CAAX, and either 0.12 μg of GGA3-PBD-RlucII, PAK-CRIB-RlucII or Raf-RBD-RlucII. For biosensor validation experiments, cells were additionally transfected with 500 ng Flag-K-Ras-WT, Flag-K-Ras-G12V, Flag-K-Ras-SOS-CAAX, HA-ARF6-WT, HA-ARF6-T27N, Myc-Rac1-WT, Myc-Rac1-Q61L or Myc-Rac1-T17N. For PI3K/Akt activation experiments, cells were transfected with 0.48 μg of rGFP-CAAX and 0.12 μg of Akt (PH)-RlucII. After 18 h of transfection, the media was replaced and cells were divided for subsequent experiments. Cells were detached and seeded onto poly-L-ornithine-coated 96-well flat white bottom plates (BrandTech Scientific) at a density of 2.5 × 10^4 cells per well in media. The next day, cells were washed once with Tyrode’s buffer (140 mM NaCl, 2.7 mM KCl, 1 mM CaCl2, 12 mM NaHCO3, 5.6 mM D-glucose, 0.5 mM MgCl2, 0.37 mM NaH2PO4, 25 mM HEPES, pH 7.4) and left in Tyrode’s buffer. […]

CC(C)C(=O)N1CCN(c2ccc(NC(=O)c3cc4ccccc4o3)cc2Cl)CC1 [Compound 21]
Rac/Cdc42 activation mediated by AT1R (BRET sensor): failed to inhibit Rac/Cdc42 activation | Rac MEAN (Fig.4d) (Log [Comp 21] (M) -4): 98.9456 | Rac MEAN (Fig.4d) (Log [Comp21] (M) -4.3): 92.4505 | Rac MEAN (Fig.4d) (Log [Comp21] (M) -5): 96.5837 | Rac MEAN (Fig.4d) (Log [Comp21] (M) -5.3): 100.464 | Rac MEAN (Fig.4d) (Log [Comp 21] (M) -6): 102.348 | Rac MEAN (Fig.4d) (Log [Comp21] (M) -6.3): 96.0354 | Rac MEAN (Fig.4d) (Log [Comp 21] (M) -7): 96.1409

From PMC8333425, “Discovery of a dual Ras and ARF6 inhibitor from a GPCR endocytosis screen” (Nature Communications, 2021)
